# In patent publication US20240217988A1, “ESTROGEN RECEPTOR ANTAGONIST” (Shenzhen Forward Pharmaceuticals Co., Limited, priority 2021, published 2024):
# What was measured:
# GST-ERα-LBD = GST-ERα-LBD (Homo sapiens (Human), UniProt P03372); assay: ERα TR-FRET test; assay type: biochemical; settings: estradiol final concentration 1.5 nM, biotin-SRC2
# Procedure: 1× Tris-HCl (Sigma, PHG0002) protein buffer was prepared and mixed for later use. The compound to be detected was prepared into a stock solution with a concentration of 2 mM and then subjected to serial 3-fold gradient dilution, resulting in a total of 10 concentrations.
# Preparation of 1× protein mixed solution: firstly, 2× GST-ERα-LBD (Invitrogen, A15677)/MAb anti-GST-Eu (Cisbio, 61GSTKLA) mixed solution was prepared according to the following table.
# 2× biotin-SRC2/streptavidin-XL665 (Cisbio, 610SAXLA) mixed solution was prepared.
# The above 2× GST-NR-LBD/ MAb anti-GST-Eu solution and 2× biotin-SRC2/streptavidin-XL665 solution were uniformly mixed at a volume ratio of 1:1; and the 1× protein mixed solution was added to each well of a 384-well plate, with 20 μL being added per well, the 384-well plate was put into a centrifuge and centrifuged at room temperature at 1000 rpm for 10 seconds, and it was taken out, then left to stand at room temperature for 3 h, and then read by EnVision multifunctional microplate reader.
# The inhibition rate was calculated according to the following formula: […]
# The data were imported into Graphpad Prism, and Log(agonist) vs. response-variable slope was used for curve fitting.
# Y=Bottom+(Top−Bottom)/(1+10^((LogEC50−X)*HillSlope)) Fitting formula
# ERα = ERα (Homo sapiens (Human), UniProt P03372); assay: Degradation effect of compound on ERα (ERα DuoSet IC ELISA in MCF-7 cells); assay type: cell-based; settings: 24 h with compound, read-out: IC50 value of ERα degradation by compound
# Procedure: In this test example, ERα DuoSet IC ELISA Kit (R&D, DYC5715) was used to detect the degradation effect of the compound on ERα. On the first day of the experiment, human breast cancer cells MCF-7 (the source was as above) were inoculated into a 24-well plate. The culture medium was an MEM culture medium containing 10% of activated-carbon-treated FBS (Tocyto, UT61204), 1% of pyruvic acid and 1% of nonessential amino acid. The inoculation density was 150,000 cells/well. The cells were cultured at 37° C., 5% CO2 for 24 h.
# On the second day of the experiment, the compound to be tested was diluted in gradient and added to a 24-well plate containing cells. The cells were cultured for 24 h at 37° C., 5% CO2. ERα capture antibody was diluted to 1 μg/ml with PBS (Corning, 21-040-CVR) and added to a 96-well plate at 100 μL/well, and the plate was […] coated overnight at room temperature.
# On the third day of the experiment, the coated 96-well plate was washed three times with PBS, 300 μL of a blocking solution (R&D, DY995) was added to each well, and the plate was blocked at room temperature for 1 h. The 24-well plate was washed once with PBS, and the residual liquid was sucked off. […] The diluted cell lysate was taken and added to the blocked 96-well plate, with 100 μL per well, and incubated at room temperature for 2 h. The plate was washed three times with a washing solution (R&D, WA126), and a primary antibody was then added. After incubation for 1 h, the 96-well plate was washed four times, a secondary antibody was added, and incubation was carried out at room temperature in the dark for 30 min. The plate was washed four times with the washing solution, and TMB (R&D, DY999) was added. After 15 minutes of development, the reaction was terminated with a stop solution (R&D, DY994), and the light absorption at 450 nm was read.
# [1] = test system: Human breast cancer cells MCF-7; assay: MCF-7 cell proliferation experiment; assay type: cell-based; settings: Homo sapiens, MCF7; MCF-7 cells, 72 hours, Cell Titer-Glo
# Procedure: Test Example 2: MCF-7 Cell Proliferation Experiment
# Human breast cancer cells MCF-7 (HTB-22, purchased from ATCC) were inoculated into a 96-well plate. The culture medium was an MEM (Hyclone, SH30024.01B) culture medium containing 10% of FBS (Gibco, 10099-141), 1% of pyruvic acid (Sigma, S8636), and 1% of nonessential amino acid (Sigma, M7145), and the inoculation density was 4,000 cells/well. The cells were cultured at 37° C., 5% CO2. The compound was prepared into a 20 mM stock solution, which was subjected to gradient dilution to a final concentration of […] with 100% DMSO (Sigma, D2650) and then diluted 20 folds with a culture medium containing 2% of FBS. After 24 hours of culture, the culture medium was removed, 90 μL of a culture medium containing 2% of FBS and 10 μL of drug were added to each well, while 10 μL of DMSO was added to the control group, and they were gently shaken and mixed. The blank group only contained 100 μL of 2% FBS culture medium. They were placed in an incubator and cultured at 37° C., 5% CO2. After 72 hours, 50 μL of mixed Cell Titer-Glo (Promega, G7571) was added. They were shaken and mixed uniformly, and placed at room temperature for 10 min. The chemiluminescence signal value was determined. The negative control was 0.5% DMSO well.
# [2] = Stability in human liver microsomes in vitro; assay type: in vitro ADME; settings: human liver microsomes
# Procedure: Test Example 4: Test for Stability in Human Liver Microsomes In Vitro Eight 96-well incubation plates were prepared and named [NT], Blank60 and NCF60, respectively. […] No test compound or control compound was added to Blank60 plate, and samples were taken after incubation for 60 min. NCF60 plate was incubated with a potassium phosphate buffer instead of an NADPH regeneration system solution (Sigma, N0505) for 60 min. […] Only the microsome working solution was added to Blank60 plate, and the incubation plates Blank60, T5, T15, T30, T45 and T60 except T0 and NCF60 were then placed in a water bath at 37° C. and pre-incubated for about 10 min. To the samples of T0 plate, 600 μL of a stop solution (acetonitrile:methanol (95:5, v/v) solution containing 100 ng/mL of tolbutamide (Sigma, T0891)) was added first, and the NADPH regeneration system working solution was then added. 98 μL of a potassium phosphate buffer was added to each well of NCF60 plate and incubated for 60 min. After the pre-incubation in the incubation plates Blank60, T5, T15, T30, T45 and T60 was completed, 98 μL of the NADPH regeneration system working solution was added to each sample well to initiate the reaction. After an appropriate incubation time (such as 5, 15, 30, 45 and 60 min), 600 μL of a stop solution was added to each sample well and the control sample well in Blank60, […] the reaction. All the sample plates were shaken uniformly and centrifuged at 3220×g for 20 min. 200 μL of test sample supernatant was separately taken and diluted in 200 μL of an aqueous solution containing 0.3% formic acid for LC-MS/MS analysis, and 100 μL of control sample supernatant was taken and diluted in 300 μL of pure water for LC-MS/MS analysis. Calculation was performed according to the following formula: [formula] [formula] [formula] [formula] [formula] [formula]
# Chain of GST-ERα-LBD (P03372 311-547): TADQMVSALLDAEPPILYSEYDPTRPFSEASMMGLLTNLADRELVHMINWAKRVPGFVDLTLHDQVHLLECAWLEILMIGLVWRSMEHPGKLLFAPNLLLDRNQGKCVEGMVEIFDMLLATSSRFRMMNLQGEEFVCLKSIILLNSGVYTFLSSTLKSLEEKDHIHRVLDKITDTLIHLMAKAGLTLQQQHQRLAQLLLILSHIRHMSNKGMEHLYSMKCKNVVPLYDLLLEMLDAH
# Chain of ERα (P03372 whole entry): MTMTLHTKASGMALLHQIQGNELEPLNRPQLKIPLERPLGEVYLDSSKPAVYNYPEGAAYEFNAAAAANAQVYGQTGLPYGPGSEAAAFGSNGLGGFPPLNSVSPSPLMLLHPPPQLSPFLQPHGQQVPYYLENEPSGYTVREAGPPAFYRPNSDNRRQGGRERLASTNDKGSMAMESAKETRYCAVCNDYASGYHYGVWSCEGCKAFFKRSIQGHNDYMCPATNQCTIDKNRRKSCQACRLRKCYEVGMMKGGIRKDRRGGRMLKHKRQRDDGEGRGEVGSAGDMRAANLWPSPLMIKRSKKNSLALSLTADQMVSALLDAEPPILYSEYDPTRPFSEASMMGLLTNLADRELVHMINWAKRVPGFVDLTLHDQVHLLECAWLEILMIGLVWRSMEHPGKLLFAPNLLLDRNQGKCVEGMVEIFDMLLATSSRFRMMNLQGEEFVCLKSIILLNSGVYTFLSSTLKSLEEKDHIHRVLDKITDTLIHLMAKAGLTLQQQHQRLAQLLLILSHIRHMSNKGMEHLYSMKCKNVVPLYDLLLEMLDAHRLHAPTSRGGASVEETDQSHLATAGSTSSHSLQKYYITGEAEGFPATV
smiles,measurement,setting,value
"COc1cc(NC2CN(CCCF)C2)cc(F)c1[C@@H]1c2ccc3[nH]c(=O)oc3c2C[C@@H](C)N1CC(F)(F)F [Example 34, (6S,8R)-6-(4-((1-(3-fluoropropyl)azetidin-3-yl)amino)-2-methoxy-6-fluoro-phenyl)-8-methyl-7-(2,2,2-trifluoroethyl)-6,7,8,9-6,7,8,9-tetrahydrooxazolo[5,4-f]isoquinolin-2(3H)-one]",IC50,GST-ERα-LBD,19.4 nM
same,DC50,ERα,0.24 nM
same,IC50,[1],0.19 nM
same,half-life,"[2]; microsome protein 1 mg/mL working solution, NADPH",1.78 h
same,CLint scaled,[2]; scaled to liver,8.9 mL/min/kg
same,microsomal CLint,[2]; read-out: CLint(mic),10.1 µL/min/mg
